According to patent US20110045001A1, “Transfection results of non-viral gene delivery systems by influencing of the innate immune system” (Biontex Laboratories GmbH, priority 2008, published 2011):
Where “and” joins values, the source holds several entries; their conditions need not be identical. Equal entries are not always repeated. Where two headings read alike, the source gives them in different places.

Columns and labels:
[1] = test system: HeLa cells; conditions: transfection repeated on 3rd day, pre-incubation 2 hours, development time 10 min
Method: 1st day: HeLa cells are sown in a 48-well plate, the cells being plated out at a cell count of 0.8*10^5 cells per well of 250 μl of complete medium (10% FCS). […] 1 mg of inhibitor is dissolved in 100 μl of DMSO (stock solution). Dilution is then carried out with PBS 1:20 (working solution). […] The lipoplexes are then prepared. […] The two solutions are then mixed and incubated for 15 min. Finally, 50 μl of the lipoplex solution are added to each well. […] Analogous to Example 1 (with half amounts)

[2] = test system: HeLa-Luc cells; experiment: Luciferase assay after anti-luciferase-siRNA transfection in the presence of kinase inhibitors (Example 8); conditions: anti-luciferase-siRNA 1 pMol/well, Metafectene Pro
[3] = test system: HeLa cells; experiment: β-Galactosidase reporter gene assay after single or repetitive transfection with antagonist (Example 4); format: cell-based, human; conditions: development time 10 min; for β-Galactosidase assay absorption, average value of duplicates 1&2/2: single transfection
Method: 1st day: Analogous to Example 3.
The antagonist is adjusted to a concentration of 0.025 μg/μl with PBS.
The lipoplexes are then prepared.
Analogously to Example 3.
Analogous to Example 1 (with half amounts)

[4] = test system: HeLa-Luc cells; experiment: Vitality determination with trypan blue after siRNA transfection in the presence of TLR7/8 agonists (Example 9); conditions: 48 hours
Method: (§1) The cells are to be plated out at a cell count of 2×10^4 cells/cm^2 per well of 250 μl of complete medium.
(§2) First of all, the first 5 wells of the first three rows of a 48-well plate are each filled with 30 μl of PBS.
(§3) The stock solution of anti-luciferase-siRNA and the non-specific-control-siRNA is adjusted to a concentration of 1 pmol/10 μl with PBS. Then 10 μl of the working solution of the anti-luciferase-siRNA are pipetted into each of the first three wells of the first three rows of the 48-well plate. 10 μl of the working solution of the non-specific-control-siRNA are pipetted into each fourth well.
(§4) The Metafectene Pro reagent is diluted 1:300 with PBS. 20 μl of that dilution are introduced into each well containing siRNA.
(§5) The lipoplexes are then incubated for 20 minutes at room temperature. Then 250 μl of cell suspension are added to each well.
Two different agonists are added to the first 2 columns of the two 48-well plates, with three different working concentrations of the agonists being used. The agonists are in lyophilised form. They are dissolved with endotoxin-free water to form stock solutions having the concentration 100 μg/ml. The stock solutions are each diluted 1:10 with water to give working solutions. […]
After the addition of the agonists, the two 48-well plates are incubated in a CO2 incubator for 48 hours.
After an incubation period of 48 hours, the cells of a plate are trypsinised and, using a Neubauer counting chamber, vitality measurement is carried out for each well with trypan blue.

[5] = test system: HeLa-Luc cells; experiment: Luciferase assay after siRNA transfection in the presence of TLR7/8 agonists (Example 9); format: cell-based, human; conditions: imiquimod 0.25 μg/ml final concentration (row A, column 1) + anti-luciferase-siRNA/Metafectene Pro; 48 hours
Method: as §1, §2, §3, §4, §5
Two different agonists are added to the first 2 columns of the two 48-well plates, with three different working concentrations of the agonists being used. The agonists are in lyophilised form. They are dissolved with endotoxin-free water to form stock solutions having the concentration 100 μg/ml. The stock solutions are each diluted 1:10 with water to give working solutions.
Of the imiquimod working solution, 0.78 μl (=0.25 μg/ml final concentration) are pipetted into A1, 15.5 μl (=5 μg/ml) into A2 and 31 μl (=10 μg/ml) into A3. […]

[6] = repetitive transfection, antagonist 0.0625 μg per well
[7] = repetitive transfection, antagonist 0.125 μg per well
[8] = repetitive transfection, antagonist 0.250 μg per well
[9] = repetitive transfection, antagonist 0.375 μg per well
[10] = repetitive transfection, antagonist 0.75 μg per well

Question: What does the source list for `N#CC(=C(/N)Sc1ccccc1N)/C(C#N)=C(/N)Sc1ccccc1N` [U0126, 1,4-diamino-2,3-dicyano-1,4-bis(o-aminophenylmercapto)butadiene]?
Answer: β-Galactosidase assay absorption, average value of 3 measurements ([1]; inhibitor 5 μM (well E)): 0.72; β-Galactosidase assay absorption, average value of 3 measurements ([1]; inhibitor 10 μM (well D)): 0.92; β-Galactosidase assay absorption, average value of 3 measurements ([1]; inhibitor 25 μM (well C)): 0.79; β-Galactosidase assay absorption, average value of 3 measurements ([1]; inhibitor 50 μM (well B)): 0.90; β-Galactosidase assay absorption, average value of 3 measurements ([1]; inhibitor 75 μM (well A)): 0.97; Luciferase assay, average value of 3×3 measurements ([2]; single transfection, U0126 75 μM): 260 RLU/μl ell extract/sec

Question: “Human Interleukin-1 Receptor Antagonist (IL1-ra Human): Human interleukin-1 receptor antagonist, Biomol, Cat. No. 54592” was tested. Which “β-Galactosidase assay absorption, average value of 3 measurements” value [3, 6] did it give?
Answer: The value was 0.791 and 1.021.

Question: What about the “β-Galactosidase assay absorption, average value of duplicates 3&4/2” value [3, 6] of the same compound?
Answer: Its value is 0.906.

Question: What about the “β-Galactosidase assay absorption, average value of 3 measurements” value [3, 7] of the same compound?
Answer: Its value is 0.856 and 1.185.

Question: And the “β-Galactosidase assay absorption, average value of duplicates 3&4/2” value [3, 7]?
Answer: The value was 1.020.

Question: And the “β-Galactosidase assay absorption, average value of 3 measurements” value [3, 8]?
Answer: The value was 1.035 and 1.026.

Question: And the “β-Galactosidase assay absorption, average value of duplicates 3&4/2” value [3, 8]?
Answer: Its value is 1.030.

Question: And the “β-Galactosidase assay absorption, average value of 3 measurements” value [3, 9]?
Answer: Its value is 1.076 and 1.081.

Question: And the “β-Galactosidase assay absorption, average value of duplicates 3&4/2” value [3, 9]?
Answer: The value was 1.078.

Question: And the “β-Galactosidase assay absorption, average value of 3 measurements” value [3, 10]?
Answer: Its value is 1.161 and 1.207.

Question: And the “β-Galactosidase assay absorption, average value of duplicates 3&4/2” value [3, 10]?
Answer: The value was 1.184.

Question: What about the “β-Galactosidase assay absorption, average value of 3 measurements” value ([3]; single transfection (columns 1, 2), antagonist 0.0625 μg per well, pre-incubation 7 hours) of the same compound?
Answer: The value was 0.427 and 0.448.

Question: And the “β-Galactosidase assay absorption, average value of 3 measurements” value ([3]; single transfection (columns 1, 2), antagonist 0.125 μg per well, pre-incubation 7 hours)?
Answer: The value was 0.415 and 0.435.

Question: What about the “β-Galactosidase assay absorption, average value of 3 measurements” value ([3]; single transfection (columns 1, 2), antagonist 0.250 μg per well, pre-incubation 7 hours) of the same compound?
Answer: Its value is 0.393 and 0.439.

Question: What about the “β-Galactosidase assay absorption, average value of 3 measurements” value ([3]; single transfection (columns 1, 2), antagonist 0.375 μg per well, pre-incubation 7 hours) of the same compound?
Answer: The value was 0.392 and 0.460.

Question: What about the “β-Galactosidase assay absorption, average value of 3 measurements” value ([3]; single transfection (columns 1, 2), antagonist 0.75 μg per well, pre-incubation 7 hours) of the same compound?
Answer: The value was 0.443 and 0.455.

Question: And the “β-Galactosidase assay absorption, average value of duplicates 1&2/2” value ([3]; antagonist 0.0625 μg per well)?
Answer: The value was 0.437.

Question: What about the “β-Galactosidase assay absorption, average value of duplicates 1&2/2” value ([3]; antagonist 0.125 μg per well) of the same compound?
Answer: The value was 0.425.

Question: And the “β-Galactosidase assay absorption, average value of duplicates 1&2/2” value ([3]; antagonist 0.250 μg per well)?
Answer: Its value is 0.416.

Question: And the “β-Galactosidase assay absorption, average value of duplicates 1&2/2” value ([3]; antagonist 0.375 μg per well)?
Answer: The value was 0.426.

Question: And the “β-Galactosidase assay absorption, average value of duplicates 1&2/2” value ([3]; antagonist 0.75 μg per well)?
Answer: The value was 0.449.

Question: Which results are given for `C[S+]([O-])c1ccc(-c2nc(-c3ccncc3)c(-c3ccc(F)cc3)[nH]2)cc1` (stereo not shown) [SB203580]?
Answer: Luciferase assay, average value of 3×3 measurements ([2]; single transfection, SB203580 5 μM): 693 RLU/μl ell extract/sec; Luciferase assay, average value of 3×3 measurements ([2]; single transfection, SB203580 10 μM): 747 RLU/μl ell extract/sec; Luciferase assay, average value of 3×3 measurements ([2]; single transfection, SB203580 20 μM): 630 RLU/μl ell extract/sec; Luciferase assay, average value of 3×3 measurements ([2]; single transfection, SB203580 30 μM): 671 RLU/μl ell extract/sec; Luciferase assay, average value of 3×3 measurements ([2]; single transfection, SB203580 40 μM): 669 RLU/μl ell extract/sec; Luciferase assay, average value of 3×3 measurements ([2]; transfection repeated on 3rd day, SB203580 5 μM): 696 RLU/μl ell extract/sec; Luciferase assay, average value of 3×3 measurements ([2]; transfection repeated on 3rd day, SB203580 10 μM): 656 RLU/μl ell extract/sec; Luciferase assay, average value of 3×3 measurements ([2]; transfection repeated on 3rd day, SB203580 20 μM): 617 RLU/μl ell extract/sec; Luciferase assay, average value of 3×3 measurements ([2]; transfection repeated on 3rd day, SB203580 30 μM): 587 RLU/μl ell extract/sec; Luciferase assay, average value of 3×3 measurements ([2]; transfection repeated on 3rd day, SB203580 40 μM): 610 RLU/μl ell extract/sec

Question: For `CC(C)Cn1cnc2c(N)nc3ccccc3c21` [Imiquimod, 1-(2-methylpropyl)-1H-imidazo[4,5-c]quinoline-4-amine], which “Vitality (trypan blue staining)” value ([4]; Imiquimod 0.5 μg/ml + anti-luciferase-siRNA/Metafectene Pro) is on record?
Answer: The value was 98.6%.

Question: And the “Vitality (trypan blue staining)” value ([4]; Imiquimod 5 μg/ml + anti-luciferase-siRNA/Metafectene Pro)?
Answer: The value was 88.7%.

Question: What about the “Vitality (trypan blue staining)” value ([4]; Imiquimod 10 μg/ml + anti-luciferase-siRNA/Metafectene Pro) of the same compound?
Answer: Its value is 88.6%.

Question: And the “Luciferase assay, average value of 3×3 measurements” value [5]?
Answer: Its value is 676 RLU/μl cell extract/sec.
